The source of these data is US20230339900A1, “CASEIN KINASE 1 DELTA MODULATORS” (Janssen Pharmaceutica NV, priority 2020, published 2023).

SMILES strings stand for the structures.

The target in experiment [1] is human CSNK1D tagged with nanoluciferase (Homo sapiens (Human), UniProt P48730). As to the kind of experiment: Whole Cell nBRET CSNK1D Binding Assay. Conditions: living CHO cells stably expressing human CSNK1D-nanoluciferase; NanoBret tracer 130 nM; 2 hours 37° C.; read-out: CSNK1D BRET IC50. The method in brief: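 Live CHO cells stably expressing nanoluciferase-tagged CSNK1D, seeded in serum-free OptiMEM, received compound dose-response plus NanoBRET tracer (130 nM) for 2 h at 37 °C.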
Chain of human CSNK1D tagged with nanoluciferase (P48730 whole entry): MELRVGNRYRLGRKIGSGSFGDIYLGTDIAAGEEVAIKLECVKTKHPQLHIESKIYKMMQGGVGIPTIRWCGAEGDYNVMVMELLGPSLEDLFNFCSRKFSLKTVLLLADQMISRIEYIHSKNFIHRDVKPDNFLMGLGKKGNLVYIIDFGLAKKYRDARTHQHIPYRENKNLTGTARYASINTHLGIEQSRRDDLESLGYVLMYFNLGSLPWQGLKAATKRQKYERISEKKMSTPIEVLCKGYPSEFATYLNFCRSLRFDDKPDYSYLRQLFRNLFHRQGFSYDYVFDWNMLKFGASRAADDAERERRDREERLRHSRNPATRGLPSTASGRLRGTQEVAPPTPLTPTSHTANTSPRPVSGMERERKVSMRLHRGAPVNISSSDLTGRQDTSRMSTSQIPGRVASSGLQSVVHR
(In general: Bioluminescence resonance energy transfer reports proximity on the nanometre scale.)

For experiment [2], the target named is human recombinant GST cleaved CSNK1D (Homo sapiens (Human), UniProt P48730). Description: Purified enzyme assay (ADP-Glo Kinase Assay). Conditions: 2 nM CSNK1D, peptide substrate 150 μM, ATP 20 μM, 45 minutes room temperature. In kind it is biochemical. (ADP-Glo turns the ADP formed in a reaction into a luminescent signal.)
Chain of human recombinant GST cleaved CSNK1D (P48730 whole entry): as above

Usually IC50 stands for the concentration needed to halve the response being measured. The AC50 is the concentration giving half of the maximal activity seen. Take `CC(C)c1cc2c(-c3cn(C)nc3-c3ccc(F)cn3)ccnc2[nH]1` [Example 83, 4-(3-(5-Fluoropyridin-2-yl)-1-methyl-1H-pyrazol-4-yl)-2-isopropyl-1H-pyrrolo[2,3-b]pyridine]: the IC50 in experiment [1] was determined as 1.57 µM. The AC50 in experiment [2] is 0.054 µM.
The like results for `Cn1cc(-c2ccnc3[nH]c(C(F)F)cc23)c(-c2ccc(F)cn2)n1` [Example 84, 2-(Difluoromethyl)-4-(3-(5-fluoropyridin-2-yl)-1-methyl-1H-pyrazol-4-yl)-1H-pyrrolo[2,3-b]pyridine] were, in that order, 0.224 µM and 0.023 µM.
For `Cn1cc(-c2ccnc3[nH]c(C(F)(F)F)cc23)c(-c2ccc(F)cn2)n1` [Example 85, 4-(3-(5-Fluoropyridin-2-yl)-1-methyl-1H-pyrazol-4-yl)-2-(trifluoromethyl)-1H-pyrrolo[2,3-b]pyridine] the same measures were 0.255 µM and 0.022 µM.
For `Cn1cc(-c2ccnc3[nH]cc(C(F)(F)F)c23)c(-c2ccc(F)cn2)n1` [Example 86, 4-(3-(5-Fluoropyridin-2-yl)-1-methyl-1H-pyrazol-4-yl)-3-(trifluoromethyl)-1H-pyrrolo[2,3-b]pyridine] the same measures were 1.06 µM and 0.048 µM.
For `Cn1cc(-c2c(C(F)(F)F)cnc3[nH]ccc23)c(-c2ccc(F)cn2)n1` [Example 87, 4-[3-(5-Fluoro-2-pyridyl)-1-methyl-pyrazol-4-yl]-5-(trifluoromethyl)-1H-pyrrolo[2,3-b]pyridine], the IC50 in experiment [1] is 0.094 µM. For the same molecule, in experiment [2], the AC50 stood at 0.004 µM.
The like results for `Cn1cc(-c2ccnc3[nH]cc(C#N)c23)c(-c2ccc(F)cn2)n1` [Example 88, 4-[3-(5-Fluoro-2-pyridyl)-1-methyl-pyrazol-4-yl]-1H-pyrrolo[2,3-b]pyridine-3-carbonitrile] were, in that order, 0.144 µM and 0.016 µM.
For `Cn1cc(-c2c(C#N)cnc3[nH]ccc23)c(-c2ccc(F)cn2)n1` [Example 89, 4-[3-(5-Fluoro-2-pyridyl)-1-methyl-pyrazol-4-yl]-1H-pyrrolo[2,3-b]pyridine-5-carbonitrile] the same measures were 0.071 µM and 0.003 µM.
With `Cn1cc(-c2c(CC#N)cnc3[nH]ccc23)c(-c2ccc(F)cn2)n1` [Example 90, 2-[4-[3-(5-Fluoro-2-pyridyl)-1-methyl-pyrazol-4-yl]-1H-pyrrolo[2,3-b]pyridin-5-yl]acetonitrile], the IC50 in experiment [1] is 7.16 µM. Besides, the AC50 in experiment [2] was 0.075 µM.
For `Cn1cc(-c2c(C3COC3)cnc3[nH]ccc23)c(-c2ccc(F)cn2)n1` [Example 91, 4-(3-(5-Fluoropyridin-2-yl)-1-methyl-1H-pyrazol-4-yl)-5-(oxetan-3-yl)-1H-pyrrolo[2,3-b]pyridine] the same measures were 0.653 µM and 0.019 µM.
`Cn1cc(-c2ccnc3[nH]cc(C4COC4)c23)c(-c2ccc(F)cn2)n1` [Example 93, 4-[3-(5-Fluoro-2-pyridyl)-1-methyl-pyrazol-4-yl]-3-(oxetan-3-yl)-1H-pyrrolo[2,3-b]pyridine]: the IC50 in experiment [1] was determined as 3.66 µM. Further, in experiment [2], the AC50 was 0.123 µM.
The like results for `Cn1cc(-c2ccnc3[nH]c(C4(O)COC4)cc23)c(-c2ccc(F)cn2)n1` [Example 94, 3-(4-(3-(5-Fluoropyridin-2-yl)-1-methyl-1H-pyrazol-4-yl)-1H-pyrrolo[2,3-b]pyridin-2-yl)oxetan-3-ol] were, in that order, 0.187 µM and 0.01 µM.
For `Cn1cc(-c2c(CC3COC3)cnc3[nH]ccc23)c(-c2ccc(F)cn2)n1` [Example 95, 4-(3-(5-Fluoropyridin-2-yl)-1-methyl-1H-pyrazol-4-yl)-5-(oxetan-3-ylmethyl)-1H-pyrrolo[2,3-b]pyridine] the same measures were 0.376 µM and 0.002 µM.
For `Cn1cc(-c2ccnc3[nH]ncc23)c(-c2ccc(F)cn2)n1` [Example 98, 4-(3-(5-Fluoropyridin-2-yl)-1-methyl-1H-pyrazol-4-yl)-1H-pyrazolo[3,4-b]pyridine] the same measures were 2.35 µM and 0.076 µM.
Turning to `Cc1cc(-c2cn(C)nc2-c2ccc(F)cn2)c2cn[nH]c2n1` [Example 99, 4-(3-(5-Fluoropyridin-2-yl)-1-methyl-1H-pyrazol-4-yl)-6-methyl-1H-pyrazolo[3,4-b]pyridine], the IC50 in experiment [1] was 0.238 µM. Moreover, the AC50 in experiment [2] was 0.011 µM.
The like results for `Cc1cc(-c2cn(C)nc2-c2ccc(F)cn2)c2c(C)n[nH]c2n1` [Example 100, 4-[3-(5-Fluoro-2-pyridyl)-1-methyl-pyrazol-4-yl]-3,6-dimethyl-1H-pyrazolo[3,4-b]pyridine] were, in that order, 0.197 µM and 0.012 µM.
The like results for `Cn1cc(-c2cc(C3CC3)nc3[nH]ncc23)c(-c2ccc(F)cn2)n1` [Example 101, 6-Cyclopropyl-4-(3-(5-fluoropyridin-2-yl)-1-methyl-1H-pyrazol-4-yl)-1H-pyrazolo[3,4-b]pyridine] were, in that order, 0.829 µM and 0.034 µM.
The like results for `Cn1cc(-c2ncnc3[nH]ccc23)c(-c2ccc(F)cn2)n1` [Example 102, 4-(3-(5-Fluoropyridin-2-yl)-1-methyl-1H-pyrazol-4-yl)-7H-pyrrolo[2,3-d]pyrimidine] were, in that order, 1.28 µM and 0.048 µM.
Turning to `COc1ccc2nccc(-c3cn(C)nc3-c3ccc(F)cn3)c2n1` [Example 103, 8-[3-(5-Fluoro-2-pyridyl)-1-methyl-pyrazol-4-yl]-2-methoxy-1,5-naphthyridine], the IC50 in experiment [1] worked out at 0.147 µM. The AC50 in experiment [2] worked out at 0.01 µM.
As to `Cn1cc(-c2ccnc3ccccc23)c(-c2ccc(F)cn2)n1` [Example 104, 4-[3-(5-Fluoro-2-pyridyl)-1-methyl-pyrazol-4-yl]quinoline], in experiment [1], the IC50 turned out to be 1.32 µM. Moreover, in experiment [2], the AC50 turned out to be 0.17 µM.
Consider `Cn1cc(-c2ccnc3cc(Cl)ccc23)c(-c2ccc(F)cn2)n1` [Example 105, 7-Chloro-4-[3-(5-fluoro-2-pyridyl)-1-methyl-pyrazol-4-yl]quinoline], for which, in experiment [1], the IC50 is 0.817 µM. For the same molecule, the AC50 in experiment [2] is 0.025 µM.
The like results for `Cn1cc(-c2ccnc3cc(F)ccc23)c(-c2ccc(F)cn2)n1` [Example 106, 7-Fluoro-4-[3-(5-fluoro-2-pyridyl)-1-methyl-pyrazol-4-yl]quinoline] were, in that order, 0.564 µM and 0.039 µM.
As to `Cn1cc(-c2ccnc3cc(C(F)(F)F)ccc23)c(-c2ccc(F)cn2)n1` [Example 107, 4-[3-(5-Fluoro-2-pyridyl)-1-methyl-pyrazol-4-yl]-7-(trifluoromethyl)quinoline], the IC50 in experiment [1] amounted to 0.264 µM. Also, the AC50 in experiment [2] came out at 0.031 µM.
The like results for `COc1ccc2c(-c3cn(C)nc3-c3ccc(F)cn3)ccnc2c1` [Example 108, 4-[3-(5-Fluoro-2-pyridyl)-1-methyl-pyrazol-4-yl]-7-methoxy-quinoline] were, in that order, 0.373 µM and 0.013 µM.
On to `Cn1cc(-c2ccnc3cc(OC(F)(F)F)ccc23)c(-c2ccc(F)cn2)n1` [Example 109, 4-[3-(5-Fluoro-2-pyridyl)-1-methyl-pyrazol-4-yl]-7-(trifluoromethoxy)quinoline], for which the IC50 in experiment [1] was found to be 0.468 µM. The AC50 in experiment [2] was determined as 0.041 µM.
`COc1ccc2c(-c3cn(C)nc3-c3ccc(F)cn3)cc(C)nc2c1` [Example 110, 4-[3-(5-Fluoro-2-pyridyl)-1-methyl-pyrazol-4-yl]-7-methoxy-2-methyl-quinoline]: the IC50 in experiment [1] was over 10 µM. Moreover, in experiment [2], the AC50 was determined as 5.36 µM.
For `COc1cc2c(-c3cn(C)nc3-c3ccc(F)cn3)ccnc2cc1F` [Example 111, 7-Fluoro-4-[3-(5-fluoro-2-pyridyl)-1-methyl-pyrazol-4-yl]-6-methoxy-quinoline] the same measures were 0.491 µM and 0.028 µM.
For `Cn1cc(-c2ccnc3cnccc23)c(-c2ccc(F)cn2)n1` [Example 112, 4-[3-(5-Fluoro-2-pyridyl)-1-methyl-pyrazol-4-yl]-1,7-naphthyridine] the same measures were 0.953 µM and 0.051 µM.
For `Cn1cc(-c2ccnc3c2CCNC3)c(-c2ccc(F)cn2)n1` [Example 113, 4-[3-(5-Fluoro-2-pyridyl)-1-methyl-pyrazol-4-yl]-5,6,7,8-tetrahydro-1,7-naphthyridine] the same measures were over 10 µM and 0.144 µM.
As to `Cn1cc(-c2ccnc3c2CCCN3)c(-c2ccc(F)cn2)n1` [Example 114, 5-[3-(5-Fluoro-2-pyridyl)-1-methyl-pyrazol-4-yl]-1,2,3,4-tetrahydro-1,8-naphthyridine], the IC50 in experiment [1] turned out to be 4.23 µM. In experiment [2], the AC50 stood at 0.166 µM.
For `CC(=O)Nc1cc(-c2cn(C)nc2-c2ccc(F)cn2)ccn1` [Example 115, N-(4-(3-(5-Fluoropyridin-2-yl)-1-methyl-1H-pyrazol-4-yl)pyridin-2-yl)acetamide] the same measures were 0.315 µM and 0.009 µM.
`Cn1cc(-c2ccnc(NC(=O)C3CC3)c2)c(-c2ccc(F)cn2)n1` [Example 116, N-(4-(3-(5-Fluoropyridin-2-yl)-1-methyl-1H-pyrazol-4-yl)pyridin-2-yl)cyclopropanecarboxamide]: the IC50 in experiment [1] is 0.076 µM. Besides, the AC50 in experiment [2] is 0.003 µM.
The like results for `Cn1cc(-c2ccnc3c2CNC3)c(-c2ccc(F)cn2)n1` [Example 117, 4-(3-(5-Fluoropyridin-2-yl)-1-methyl-1H-pyrazol-4-yl)-6,7-dihydro-5H-pyrrolo[3,4-b]pyridine] were, in that order, over 10 µM and 0.101 µM.
The like results for `Cn1cc(-c2ccnc3ccsc23)c(-c2ccc(F)cn2)n1` [Example 118, 7-(3-(5-Fluoropyridin-2-yl)-1-methyl-1H-pyrazol-4-yl)thieno[3,2-b]pyridine] were, in that order, 0.376 µM and 0.024 µM.
